Measured values as given in PMC9257445 (Journal of Pharmaceutical Analysis, 2021).
pKd: −log10 of the molar value.

Molecular target: T1, tumor necrosis factor receptor type 1 (TNF-R1) (Homo sapiens, UniProt P19438)
T1 sequence (P19438 30-455): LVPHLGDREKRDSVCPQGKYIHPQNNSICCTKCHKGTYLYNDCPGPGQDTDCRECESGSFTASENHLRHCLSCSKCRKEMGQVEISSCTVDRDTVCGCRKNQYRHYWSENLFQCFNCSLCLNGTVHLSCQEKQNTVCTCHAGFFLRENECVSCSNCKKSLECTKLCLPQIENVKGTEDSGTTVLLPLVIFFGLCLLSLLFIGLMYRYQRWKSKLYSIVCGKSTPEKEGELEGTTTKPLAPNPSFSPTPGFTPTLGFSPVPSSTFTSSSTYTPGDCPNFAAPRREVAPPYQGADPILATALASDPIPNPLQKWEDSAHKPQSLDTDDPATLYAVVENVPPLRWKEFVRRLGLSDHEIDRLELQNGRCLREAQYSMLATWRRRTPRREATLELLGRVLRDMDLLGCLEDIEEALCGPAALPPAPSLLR
Experiment: SPR
Type: binding

Molecule COc1ccc(C(C)=O)c(O)c1 [paeonol] has a pKd of 4.93.
